Laboratory results as given in article PMC6940354, “Comparative Assessment of the New PDE7 Inhibitor – GRMS-55 and Lisofylline in Animal Models of Immune-Related Disorders: A PK/PD Modeling Approach” (Pharmaceutical Research, 2020).
Where “and” joins values, the source holds several entries; their conditions need not be identical. Identical values can stand only once. Marks after values point to notes of the source that are not given here.

Tests used:
[1] = tested on: cAMP degradation; set-up: method as in PMID 28730281; settings: rats, cAMP as a marker of pharmacological response ref [9]; cited from earlier work
[2] = biological target: T1, hrPDE7A (Homo sapiens, UniProt Q13946); test: PDE-Glo Phosphodiesterase Assay, hrPDE7A; format: biochemical; settings: cAMP substrate, read-out: IC50 PDE7A, Estimate (CV%)
T1 construct: purchased SignalChem, Richmond, Canada
T1 sequence (Q13946 whole entry): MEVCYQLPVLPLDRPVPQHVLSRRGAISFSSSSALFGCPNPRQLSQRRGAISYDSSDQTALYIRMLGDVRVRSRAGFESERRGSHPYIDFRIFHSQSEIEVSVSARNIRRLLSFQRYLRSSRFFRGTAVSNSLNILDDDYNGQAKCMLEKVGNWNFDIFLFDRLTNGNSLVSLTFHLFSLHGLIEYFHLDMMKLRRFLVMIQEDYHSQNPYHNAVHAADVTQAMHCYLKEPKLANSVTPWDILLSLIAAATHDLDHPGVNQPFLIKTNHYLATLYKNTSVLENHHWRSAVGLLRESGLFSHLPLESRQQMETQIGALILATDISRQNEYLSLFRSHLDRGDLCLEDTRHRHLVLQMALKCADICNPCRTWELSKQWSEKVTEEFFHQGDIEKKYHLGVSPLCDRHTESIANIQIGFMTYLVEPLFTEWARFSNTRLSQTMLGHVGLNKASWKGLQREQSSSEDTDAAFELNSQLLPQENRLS
Procedure: (§1) Inhibitory activity of the investigated and reference compounds against various subtypes of PDEs was analyzed using the PDE-Glo Phosphodiesterase Assay following the manufacturer’s instruction (Promega Corp., USA). […] The values of IC50, Imax, and γ parameters of the investigated and reference compounds were estimated using non-linear regression in Phoenix WinNonlin v. […] Each sample was performed in quadruplicate and the relative activity of each sample was calculated as E=sample activity/control activity·100% .
(§2) One and a half μL aliquots of PDE-Glo reaction buffer containing appropriate amounts of human recombinant PDE (hrPDE) 1B, 2A, 3A, 4B, 4D, 5A, 7A, or 10A (SignalChem, Richmond, Canada) were placed into separate wells of a 384-well plate (Thermo Scientific, USA). The investigated compounds were initially dissolved in DMSO and then a serial dilution with DMSO was performed. Each dilution was mixed with PDE-Glo reaction buffer at a ratio of 1:5 (v/v). Then, 1 μL of the solution containing a PDE inhibitor and 2.5 μL of the substrate solution were added to each well. cGMP was used as a substrate in the case of hrPDE2A and hrPDE5A, while cAMP for other types of hrPDEs. The samples were incubated for 10 min at 30°C. […] The luminescence of each sample was measured by a microplate reader POLARstar Omega (BMG LABTECH, Germany).

[3] = biological target: hrPDE5A (Homo sapiens, UniProt O76074); test: PDE-Glo Phosphodiesterase Assay, hrPDE5A
Procedure: as §1, §2

[4] = biological target: hrPDE10A (Homo sapiens, UniProt Q9Y233); test: PDE-Glo Phosphodiesterase Assay, hrPDE10A
Chain of hrPDE10A (Q9Y233 whole entry): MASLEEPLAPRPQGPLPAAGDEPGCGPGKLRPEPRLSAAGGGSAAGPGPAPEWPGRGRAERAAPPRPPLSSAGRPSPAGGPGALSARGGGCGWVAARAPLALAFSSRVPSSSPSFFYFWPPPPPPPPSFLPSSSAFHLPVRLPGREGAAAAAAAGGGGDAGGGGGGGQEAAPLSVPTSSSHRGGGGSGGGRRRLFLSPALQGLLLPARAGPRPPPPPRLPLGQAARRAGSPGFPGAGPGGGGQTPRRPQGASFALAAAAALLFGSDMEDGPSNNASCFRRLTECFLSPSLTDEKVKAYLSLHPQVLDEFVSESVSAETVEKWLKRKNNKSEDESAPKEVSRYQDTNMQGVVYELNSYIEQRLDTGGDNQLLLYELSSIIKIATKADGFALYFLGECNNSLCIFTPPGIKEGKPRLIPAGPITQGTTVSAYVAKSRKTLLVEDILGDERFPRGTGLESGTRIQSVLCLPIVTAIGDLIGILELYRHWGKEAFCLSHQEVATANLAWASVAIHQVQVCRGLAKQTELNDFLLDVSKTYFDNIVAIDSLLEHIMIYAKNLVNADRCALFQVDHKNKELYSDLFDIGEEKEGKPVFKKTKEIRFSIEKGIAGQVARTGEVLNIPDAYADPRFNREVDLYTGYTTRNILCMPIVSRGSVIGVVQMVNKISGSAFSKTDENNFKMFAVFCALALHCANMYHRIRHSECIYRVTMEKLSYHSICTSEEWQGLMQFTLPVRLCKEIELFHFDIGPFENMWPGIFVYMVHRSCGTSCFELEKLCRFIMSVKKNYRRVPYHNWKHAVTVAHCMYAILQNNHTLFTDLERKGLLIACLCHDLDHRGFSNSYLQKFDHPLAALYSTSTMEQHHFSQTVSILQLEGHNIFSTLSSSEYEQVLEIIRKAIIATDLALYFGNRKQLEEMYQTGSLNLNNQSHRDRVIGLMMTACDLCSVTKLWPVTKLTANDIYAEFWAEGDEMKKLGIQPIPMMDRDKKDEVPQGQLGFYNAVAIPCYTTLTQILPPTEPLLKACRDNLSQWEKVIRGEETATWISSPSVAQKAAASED
Procedure: as §1, §2

[5] = biological target: T2, hrPDE1B (Homo sapiens, UniProt Q01064); test: PDE-Glo Phosphodiesterase Assay, hrPDE1B; format: biochemical; settings: cAMP substrate, read-out: IC50 PDE1B, Estimate (CV%)
T2 construct: purchased SignalChem, Richmond, Canada
T2 sequence (Q01064 whole entry): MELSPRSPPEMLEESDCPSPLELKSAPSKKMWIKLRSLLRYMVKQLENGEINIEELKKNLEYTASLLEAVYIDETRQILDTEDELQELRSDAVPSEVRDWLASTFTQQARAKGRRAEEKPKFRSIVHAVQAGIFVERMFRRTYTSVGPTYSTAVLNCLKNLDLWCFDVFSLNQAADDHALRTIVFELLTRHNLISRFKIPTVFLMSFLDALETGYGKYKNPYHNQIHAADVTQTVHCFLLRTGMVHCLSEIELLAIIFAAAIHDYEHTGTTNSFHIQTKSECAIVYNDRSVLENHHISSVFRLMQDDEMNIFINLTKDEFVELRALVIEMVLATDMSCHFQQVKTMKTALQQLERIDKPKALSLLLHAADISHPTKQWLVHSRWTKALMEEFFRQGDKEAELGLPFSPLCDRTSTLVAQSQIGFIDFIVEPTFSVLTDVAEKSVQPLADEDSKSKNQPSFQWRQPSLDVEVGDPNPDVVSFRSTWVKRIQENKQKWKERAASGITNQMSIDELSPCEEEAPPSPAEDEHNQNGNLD
Procedure: as §1, §2

[6] = set-up: method as in PMID 27065076; settings: male Wistar rats; data already published ref [10]; cited from earlier work
[7] = biological target: T3, hrPDE2A (Homo sapiens, UniProt O00408); test: PDE-Glo Phosphodiesterase Assay, hrPDE2A; format: biochemical; settings: cGMP substrate, read-out: IC50 PDE2A, Estimate (CV%)
T3 construct: purchased SignalChem, Richmond, Canada
T3 sequence (O00408 whole entry): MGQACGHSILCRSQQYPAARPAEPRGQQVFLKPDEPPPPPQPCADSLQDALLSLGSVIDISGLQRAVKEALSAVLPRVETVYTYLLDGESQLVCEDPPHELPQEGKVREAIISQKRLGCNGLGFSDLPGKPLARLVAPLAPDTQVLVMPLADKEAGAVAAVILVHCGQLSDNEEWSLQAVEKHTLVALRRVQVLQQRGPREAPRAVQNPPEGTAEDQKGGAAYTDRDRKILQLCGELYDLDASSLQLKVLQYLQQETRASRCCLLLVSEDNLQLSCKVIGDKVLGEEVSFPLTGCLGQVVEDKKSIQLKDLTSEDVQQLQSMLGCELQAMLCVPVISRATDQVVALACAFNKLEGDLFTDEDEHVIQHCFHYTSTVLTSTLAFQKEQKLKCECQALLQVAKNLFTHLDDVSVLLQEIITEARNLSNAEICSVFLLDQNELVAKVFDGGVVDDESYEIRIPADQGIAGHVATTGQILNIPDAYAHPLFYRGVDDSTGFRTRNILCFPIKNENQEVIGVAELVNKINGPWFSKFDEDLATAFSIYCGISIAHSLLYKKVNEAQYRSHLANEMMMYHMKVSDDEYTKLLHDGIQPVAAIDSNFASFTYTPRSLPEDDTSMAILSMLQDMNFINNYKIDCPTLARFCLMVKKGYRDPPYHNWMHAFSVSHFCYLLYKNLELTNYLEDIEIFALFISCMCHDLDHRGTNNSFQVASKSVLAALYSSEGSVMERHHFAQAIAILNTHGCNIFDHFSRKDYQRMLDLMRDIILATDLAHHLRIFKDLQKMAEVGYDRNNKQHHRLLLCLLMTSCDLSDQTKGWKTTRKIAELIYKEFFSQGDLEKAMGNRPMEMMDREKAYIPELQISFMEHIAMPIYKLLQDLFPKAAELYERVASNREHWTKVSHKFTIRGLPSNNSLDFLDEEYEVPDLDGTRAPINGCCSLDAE
Procedure: as §1, §2

[8] = biological target: hrPDE3A (Homo sapiens, UniProt Q14432); test: PDE-Glo Phosphodiesterase Assay, hrPDE3A
Chain of hrPDE3A (Q14432 whole entry): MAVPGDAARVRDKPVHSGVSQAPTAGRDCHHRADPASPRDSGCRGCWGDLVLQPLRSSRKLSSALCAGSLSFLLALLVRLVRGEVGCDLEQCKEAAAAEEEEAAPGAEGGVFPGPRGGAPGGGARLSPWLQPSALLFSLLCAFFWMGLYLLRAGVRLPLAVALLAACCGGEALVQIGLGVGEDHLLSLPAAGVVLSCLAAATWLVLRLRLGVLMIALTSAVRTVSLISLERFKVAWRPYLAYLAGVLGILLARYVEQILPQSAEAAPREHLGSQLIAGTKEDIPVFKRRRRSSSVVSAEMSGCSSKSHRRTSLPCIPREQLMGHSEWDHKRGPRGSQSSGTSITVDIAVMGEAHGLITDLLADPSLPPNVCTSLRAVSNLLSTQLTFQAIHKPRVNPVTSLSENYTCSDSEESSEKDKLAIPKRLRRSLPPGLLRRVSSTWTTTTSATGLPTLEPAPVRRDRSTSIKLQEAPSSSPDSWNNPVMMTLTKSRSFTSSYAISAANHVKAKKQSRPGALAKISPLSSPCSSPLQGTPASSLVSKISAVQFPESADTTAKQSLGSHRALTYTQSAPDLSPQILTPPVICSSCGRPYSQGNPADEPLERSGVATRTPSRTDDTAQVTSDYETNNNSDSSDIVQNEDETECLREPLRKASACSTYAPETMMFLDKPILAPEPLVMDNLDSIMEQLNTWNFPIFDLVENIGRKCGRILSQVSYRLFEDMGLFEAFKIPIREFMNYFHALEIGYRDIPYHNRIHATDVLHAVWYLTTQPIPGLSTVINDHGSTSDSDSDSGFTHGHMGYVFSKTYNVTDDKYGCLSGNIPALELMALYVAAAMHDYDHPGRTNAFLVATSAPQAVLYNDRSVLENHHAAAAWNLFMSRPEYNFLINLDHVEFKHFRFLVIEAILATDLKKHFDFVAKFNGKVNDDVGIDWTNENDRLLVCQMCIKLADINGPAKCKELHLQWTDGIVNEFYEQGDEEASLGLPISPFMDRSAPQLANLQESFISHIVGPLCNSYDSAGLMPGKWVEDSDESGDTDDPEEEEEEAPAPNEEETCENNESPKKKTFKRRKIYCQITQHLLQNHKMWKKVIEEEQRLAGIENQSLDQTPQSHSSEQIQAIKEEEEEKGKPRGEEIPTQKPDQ
Procedure: as §1, §2

[9] = biological target: T4, hrPDE4B (Homo sapiens, UniProt Q07343); test: PDE-Glo Phosphodiesterase Assay, hrPDE4B; format: biochemical; settings: for hrPDE4B inhibitory activity, times weaker than rolipram: ratio to the reference compound rolipram
T4 construct: purchased SignalChem, Richmond, Canada
T4 sequence (Q07343 whole entry): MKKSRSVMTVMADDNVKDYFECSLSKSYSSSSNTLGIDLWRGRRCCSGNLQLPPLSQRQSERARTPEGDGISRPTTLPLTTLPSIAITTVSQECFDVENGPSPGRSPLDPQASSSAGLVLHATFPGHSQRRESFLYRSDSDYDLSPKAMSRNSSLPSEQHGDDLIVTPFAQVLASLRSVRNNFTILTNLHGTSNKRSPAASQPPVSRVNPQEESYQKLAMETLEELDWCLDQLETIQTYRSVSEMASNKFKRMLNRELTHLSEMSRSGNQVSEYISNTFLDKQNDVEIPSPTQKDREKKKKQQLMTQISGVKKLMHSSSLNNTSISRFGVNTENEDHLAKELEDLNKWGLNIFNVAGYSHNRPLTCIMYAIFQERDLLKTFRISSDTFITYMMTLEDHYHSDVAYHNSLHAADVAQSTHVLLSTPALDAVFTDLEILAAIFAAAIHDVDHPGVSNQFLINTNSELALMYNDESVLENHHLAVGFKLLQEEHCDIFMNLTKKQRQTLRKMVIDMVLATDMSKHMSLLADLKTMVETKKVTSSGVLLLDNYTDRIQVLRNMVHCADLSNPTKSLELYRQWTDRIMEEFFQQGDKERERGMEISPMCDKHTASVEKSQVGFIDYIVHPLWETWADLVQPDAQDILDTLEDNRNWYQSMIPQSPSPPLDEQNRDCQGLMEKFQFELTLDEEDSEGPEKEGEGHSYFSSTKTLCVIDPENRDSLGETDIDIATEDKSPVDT
Procedure: as §1
One and a half μL aliquots of PDE-Glo reaction buffer containing appropriate amounts of human recombinant PDE (hrPDE) 1B, 2A, 3A, 4B, 4D, 5A, 7A, or 10A (SignalChem, Richmond, Canada) were placed into separate wells of a 384-well plate (Thermo Scientific, USA). The investigated compounds were initially dissolved in DMSO and then a serial dilution with DMSO was performed. Each dilution was mixed with PDE-Glo reaction buffer at a ratio of 1:5 (v/v). Then, 1 μL of the solution containing a PDE inhibitor and 2.5 μL of the substrate solution were added to each well. cGMP was used as a substrate in the case of hrPDE2A and hrPDE5A, while cAMP for other types of hrPDEs. The samples were incubated for 10 min at 30°C. Subsequently, 2.5 μL volumes of PDE-Glo Termination Buffer and PDE-Glo Detection Solution were added to each well and after 20 min of incubation at room temperature, 10 μL of Kinase-Glo Reagent was added to each well. The luminescence of each sample was measured by a microplate reader POLARstar Omega (BMG LABTECH, Germany).

[10] = depending on the species; earlier study ref [37]; cited from earlier work
[11] = tested on: LPS-stimulated murine macrophages (RAW263.7 cells); set-up: method as in PMID 14998551; settings: LPS-stimulated murine macrophage cell line ref [31]; read-out: IC50, TNF-α production; cited from earlier work

IC50 [2] [µM]	IC50 [3] [µM]	IC50 [4] [µM]	IC50 [5] [µM]	IC50 [7] [µM]	IC50 [8] [µM]	IC50 ([9]; hrPDE4B, cAMP substrate, read-out: IC50 PDE4B, Estimate (CV%)) [µM]	hrPDE4B inhibitory activity, times weaker than rolipram [9] [times]	PDE4B inhibitory potency of GRMS-55 relative to (±)-LSF ([9]; GRMS-55 more potent than (±)-LSF in vitro)	SMILES	IC50 value for the inhibition of cAMP degradation [1] [µg/mL]	VLSF, volume of distribution of (±)-LSF, Estimate (CV%) [6]	Vmax, maximal elimination rate constant of (±)-LSF, Estimate (CV%) [6]	elimination half-life [10] [h]	IC50 [11] [µM]
297	> 100	> 100	12.9	91.6	73.4	50.8	45		CC(O)CCCCn1c(=O)c2c(ncn2C)n(C)c1=O (racemic) [(±)-LSF, lisofylline]	3.43	1.22 (3.4)^a L kg^−1	0.433 (56.9)^a mg min^−1 kg^−1		
									COc1ccc(C2CNC(=O)C2)cc1OC1CCCC1 (centres unmarked) [Rolipram, rolipram]				1 to 3	0.0593
	> 100	23.3	2.5	> 100	13.4		24	~ 2 times and ~ 2.0 times	Cn1c(=O)c2c(nc(NCCc3ccccc3)n2CCCC(=O)NN=Cc2ccccc2O)n(C)c1=O [GRMS-55, 4-(1,3-Dimethyl-2,6-dioxo-8-(phenethylamino)-2,3,6,7-tetrahydro-1H-purin-7-yl)-N′-(2-hydroxybenzylidene)butanehydrazide]					
